Literature values, collected in PMC10011554, “BET inhibitor trotabresib in heavily pretreated patients with solid tumors and diffuse large B-cell lymphomas” (Nature Communications, 2023).
Like-named read-outs stand apart in the source and are kept apart here.

Assays:
SU-DHL-4 (GCB DLBCL) = tested on: SU-DHL-4 (GCB DLBCL); design: method as in Report CC-90010-Pharm-1018; details: read-out: absolute IC50, proliferation, cited from earlier work
OCI-LY-19 (GCB DLBCL) = tested on: OCI-LY-19 (GCB DLBCL); design: method as in Report CC-90010-Pharm-1018; details: OCI-LY-19, Experiment 1, ref Report CC-90010-Pharm-1018; read-out: absolute IC50, proliferation; cited from earlier work
FARAGE (GCB DLBCL) = tested on: FARAGE (GCB DLBCL); design: method as in Report CC-90010-Pharm-1018; details: read-out: absolute IC50, proliferation, cited from earlier work
[1] = tested on: BR0869f ER-PR-Her2+ PDX-derived breast cancer model; design: method as in Investigator's Brochure; details: 7 or 14 days, ref Investigator's Brochure, read-out: mean IC50, colony formation; cited from earlier work
[2] = tested on: COH69 TNBC PDX-derived model; design: method as in Investigator's Brochure; details: COH69, ref Investigator's Brochure; read-out: IC50, colony formation; cited from earlier work
GBM15 GBM PDX = tested on: GBM15 GBM PDX; design: method as in Unpublished data from Celgene Corporation; details: Day 29, ref Unpublished data from Celgene Corporation, cited from earlier work
[3] = design: method as in Investigator's Brochure; details: ref Investigator's Brochure, cited from earlier work
OAT1 = tested on: OAT1; design: method as in Investigator's Brochure; details: OAT1, 30 µM, ref Investigator's Brochure; cited from earlier work

## Cn1cc(-c2cc(S(C)(=O)=O)ccc2OCC2CC2)c2ccccc2c1=O [trotabresib]
SU-DHL-4 (GCB DLBCL); SU-DHL-4, Experiment 1, ref Report CC-90010-Pharm-1018
  IC50: 160 nM
SU-DHL-4 (GCB DLBCL); SU-DHL-4, Table 2, ref Report CC-90010-Pharm-1018
  IC50: 304 nM
OCI-LY-19 (GCB DLBCL)
  IC50: 220 nM
FARAGE (GCB DLBCL); FARAGE, Experiment 1, ref Report CC-90010-Pharm-1018
  IC50: 710 nM
FARAGE (GCB DLBCL); Farage, Experiment 2, ref Report CC-90010-Pharm-1018
  IC50: 3350 nM
[1]
  IC50: 120 ± 10 nM
[2]
  IC50: 70 nM
GBM15 GBM PDX; GBM15, 15 mg/kg/dose (5/2)
  mean percent TGI: 65%
GBM15 GBM PDX; GBM15, 25 mg/kg/dose (3/4)
  mean percent TGI: 65%
GBM15 GBM PDX; GBM15, 37.5 mg/kg/dose (2/5)
  mean percent TGI: 70%
[3]; rats, toxicokinetics
  accumulation after repeat dosing: no accumulation in rats
[3]
  clearance in male vs female rats: approximately 2 fold
OAT1
  inhibition of mediated transport: 45.6%
